We go through six molecules from patent US11560400B2, “Salts of diphosphate phosphoramidate of nucleosides as anticancer compounds” (NuCana plc, priority 2017, dated 2023).

For one experiment, the system named is HT29. Kind of experiment: CellTiterGlo cell viability assay, HT29. Type of experiment: cell-based. To be noted: Homo sapiens, HT-29, 72 h, HT29, 72 h; for pEC50: Table 4 classes, read-out: Ab EC50; for inhibition at 198 µM: percentage inhibition at the highest concentration tested, read-out: Top Inhibit. As to the method:
(§1) A subset of compounds of the invention were assayed for their cytotoxic activity in an array of different solid tumours and haematological malignancies using the following assay.
(§2) In vitro viability assay were performed to assess the effects of compounds on cell viability in selected cell lines over 72 h using the CellTiterGlo (CTG, Promega-G7573) assay. The tests were performed in duplicates with treatment of compounds at 9 points, 3.16 folds titration in 96 well plates over ˜72 h. The compound starting concentrations were 198 μM. Cell viability assay using CellTiterGlo in 96-well plate were performed. Compound treatment 72 h, standard growth conditions, duplicates. Compounds were dissolved to 40 mM with thawed […]. Compounds were serially diluted at 3.16 fold in thawed DMSO, and warmed to 37° C. before being dissolved in media (2 μL+200 μL). After compounds were dissolved in media, media containing compounds were warmed to 37° C. in incubator and then compounds in media were added to cell plates (50 μL+50 μL) in duplicates. The compounds' final concentrations were from 198 μM to 19.8 nM. All compound solubilities were checked and recorded again, then the plates were transferred to CO2 tissue culture incubator immediately and incubated for 3 days. DMSO final concentration is 0.5%. The parent nucleoside in each case was tested as a comparator, as was an exemplary ProTide. The drugs of the ProTide class that were tested were as follows:
(§3) The following cell lines were tested and are referred to in the Table 1 below:
(§4) In Tables 2, 3 and 4, ‘Ab EC50’ refers to the absolute EC50 and ‘Top inhibit’ refers to the percentage inhibition achieved at the highest concentration tested.
For orientation: Cellular ATP, detected with luciferase, serves as a proxy for viable cell number.

For the next experiment, the system named is HepG2. Kind of experiment: CellTiterGlo cell viability assay, HepG2. Format: cell-based. To be noted: Homo sapiens, HepG2, 72 h; for pEC50: Table 4 classes, read-out: Ab EC50; for inhibition at 198 µM: percentage inhibition at the highest concentration tested, read-out: Top Inhibit. As for the experimental part: as §1, §2, §3, §4
Another experiment concerns OVCAR 3. Kind of experiment: CellTiterGlo cell viability assay, OVCAR 3. Format: cell-based. To be noted: Homo sapiens; for inhibition at 198 µM: OVCAR-3, 72 h, percentage inhibition at the highest concentration tested, read-out: Top Inhibit; for pEC50: OVCAR 3, 72 h, Table 4 classes, read-out: Ab EC50. As to the method: as §1, §2, §3, §4
Another experiment relates to MCF-7. Kind of experiment: CellTiterGlo cell viability assay, MCF-7. Type of experiment: cell-based. The note with it: Homo sapiens, MCF7, 72 h, MCF-7, 72 h, percentage inhibition at the highest concentration tested; read-out: Top Inhibit. As for the experimental part: as §1, §2, §3, §4
For the next experiment, the system named is CCRF-CEM. Kind of experiment: CellTiterGlo cell viability assay, CCRF-CEM. Format: cell-based. To be noted: Homo sapiens, 72 h; for pEC50: Table 4 classes, read-out: Ab EC50; for inhibition at 198 µM: percentage inhibition at the highest concentration tested, read-out: Top Inh. As for the experimental part: as §1, §2, §3, §4
For the next experiment, the system named is MOLT-4. Kind of experiment: CellTiterGlo cell viability assay, MOLT-4. Format: cell-based. The note with it: Homo sapiens, MOLT-4, 72 h; for inhibition at 198 µM: percentage inhibition at the highest concentration tested, read-out: Top Inh; for pEC50: Table 4 classes, read-out: Ab EC50. As to the method: as §1, §2, §3, §4
Another experiment relates to K562. Kind of experiment: CellTiterGlo cell viability assay, K562. Format: cell-based. To be noted: Homo sapiens; for inhibition at 198 µM: K562, 72 h, percentage inhibition at the highest concentration tested, read-out: Top Inh; for pEC50: K562, K 562, 72 h, Table 4 classes, read-out: Ab EC50. As for the experimental part: as §1, §2, §3, §4
The next experiment deals with HL-60. Kind of experiment: CellTiterGlo cell viability assay, HL-60. Format: cell-based. The note with it: Homo sapiens, HL-60, 72 h; for pEC50: Table 4 classes, read-out: Ab EC50; for inhibition at 198 µM: percentage inhibition at the highest concentration tested, read-out: Top Inh. As to the method:
as §1, §2, §3, §4

In the next experiment the test system is RL. Kind of experiment: CellTiterGlo cell viability assay, RL. Format: cell-based. To be noted: Homo sapiens, 72 h; for pEC50: Table 4 classes, read-out: Ab EC50; for inhibition at 198 µM: percentage inhibition at the highest concentration tested, read-out: Top Inh. As to the method:
as §1, §2, §3, §4

The test system of another experiment is RPMI-8226. Kind of experiment: CellTiterGlo cell viability assay, RPMI-8226. To be noted: Homo sapiens, RPMI-8226, 72 h; for pEC50: Table 4 classes, read-out: Ab EC50; for inhibition at 198 µM: percentage inhibition at the highest concentration tested, read-out: Top Inh. Format: cell-based, Human. As to the method:
as §1, §2, §3, §4

The next experiment has as its system KG-1. Kind of experiment: CellTiterGlo cell viability assay, KG-1. Format: cell-based. The note with it: Homo sapiens, KG-1, 72 h; for pEC50: Table 4 classes, read-out: Ab EC50; for inhibition at 198 µM: percentage inhibition at the highest concentration tested, read-out: Top Inhibit. As to the method: as §1, §2, §3, §4

pEC50: −log10 of the molar value. Counter-ions that a name gives are not always drawn. A value given as a limit tells only on which side of the number the result lay.

In general, pEC50 refers to the EC50 on a negative log10 scale, so that one unit is a factor of ten. With `C[C@H](NP(=O)(Oc1cccc2c1CCCC2)OP(=O)(O)OC[C@H]1O[C@@H](n2cnc3c(N)nc(Cl)nc32)[C@H](F)C1O)C(=O)OCc1ccccc1` (stereo partly drawn) [Example 19, 2-Chloro-9-(2′-Deoxy-2′-fluoro-β-D-arabinofuranosyl)adenine-5′-O-[1-5,6,7,8-tetrahydro-1-naphthyl(benzoxy-L-alaninyl)] Diphosphate Triethylammonium Salt], the pEC50 in the experiment on HT29 is 6.00 to 6.70; with HepG2 it was 6.00 to 6.70; in the experiment on OVCAR 3 it was below 5.00; with CCRF-CEM, above 6.70; with MOLT-4, above 6.70; in the experiment on K562 it was below 5.00. The pEC50 in the experiment with HL-60 was above 6.70; in the experiment on RL, 6.00 to 6.70; in the experiment with RPMI-8226, below 5.00; in the experiment on KG-1, above 6.70. The inhibition at 198 µM was determined as 68% in the experiment with HT29; 51% in the experiment with HepG2; 51% in the experiment with OVCAR 3; 47% with MCF-7; 99% in the experiment with CCRF-CEM; 90% in the experiment on MOLT-4. Further, the inhibition at 198 µM stood at 37% in the experiment with K562; 95% in the experiment with HL-60; 57% with RL; 79% in the experiment with RPMI-8226; 92% with KG-1.

With `CCOP(=O)(N[C@@H](C)C(=O)OCc1ccccc1)OP(=O)(O)OC[C@H]1O[C@@H](n2cnc3c(N)nc(Cl)nc32)[C@H](F)C1O` (stereo partly drawn) [Example 20, 2-Chloro-9-(2′-Deoxy-2′-fluoro-β-D-arabinofuranosyl)adenine-5′-O-[1-ethyl(benzoxy-L-alaninyl)] Diphosphate Triethylammonium Salt], the pEC50 in the experiment on HT29 was 6.00 to 6.70; with HepG2 it was 6.00 to 6.70; with OVCAR 3, below 5.00; in the experiment with CCRF-CEM it was above 6.70; in the experiment with MOLT-4 it was above 6.70; with K562 it was below 5.00. The pEC50 in the experiment with HL-60 is above 6.70; in the experiment on RL, 6.00 to 6.70; in the experiment with RPMI-8226 it was below 5.00; with KG-1, above 6.70. Also, the inhibition at 198 µM with HT29 stood at 69%; with HepG2, 54%; in the experiment with OVCAR 3 it was 49%; in the experiment on MCF-7 it was 48%; in the experiment on CCRF-CEM, 99%; in the experiment on MOLT-4, 89%. In addition, the inhibition at 198 µM was found to be 35% in the experiment on K562; 96% with HL-60; 69% in the experiment with RL; 80% with RPMI-8226; 92% with KG-1.

Regarding `CC(C)C[C@H](NP(=O)(Oc1ccccc1)OP(=O)(O)OC[C@H]1O[C@@H](n2cnc3c(N)nc(Cl)nc32)[C@H](F)C1O)C(=O)OCc1ccccc1` (stereo partly drawn) [Example 21, 2-Chloro-9-(2′-Deoxy-2′-fluoro-β-D-arabinofuranosyl)adenine-5′-O-[1-phenyl(benzoxy-L-leucinyl)] Diphosphate Triethylammonium Salt], the pEC50 was 6.00 to 6.70 with HT29; 6.00 to 6.70 in the experiment on HepG2; below 5.00 in the experiment with OVCAR 3; above 6.70 in the experiment with CCRF-CEM; above 6.70 in the experiment on MOLT-4; below 5.00 with K562. Moreover, the pEC50 in the experiment on HL-60 was above 6.70; with RL, 5.30 to 6.00; in the experiment with RPMI-8226, below 5.00; in the experiment on KG-1, above 6.70. Moreover, the inhibition at 198 µM turned out to be 69% in the experiment on HT29; 53% with HepG2; 47% in the experiment on OVCAR 3; 49% with MCF-7; 99% in the experiment with CCRF-CEM; 90% in the experiment with MOLT-4. Also, the inhibition at 198 µM in the experiment on K562 amounted to 32%; in the experiment on HL-60, 96%; in the experiment with RL, 70%; in the experiment on RPMI-8226 it was 81%; with KG-1, 92%.

For the molecule `Nc1nc(Cl)nc2c1ncn2[C@@H]1O[C@H](COP(=O)(O)OP(=O)(N[C@@H](Cc2ccccc2)C(=O)OCc2ccccc2)Oc2ccccc2)C(O)[C@H]1F` (stereo partly drawn) [Example 22, 2-Chloro-9-(2′-Deoxy-2′-fluoro-β-D-arabinofuranosyl)adenine-5′-O-[l-phenyl(benzoxy-L-phenylalaninyl)] Diphosphate Triethylammonium Salt], the pEC50 in the experiment with HT29 is 6.00 to 6.70; in the experiment on OVCAR 3, below 5.00; in the experiment on CCRF-CEM, above 6.70; in the experiment with MOLT-4, above 6.70; in the experiment on K562 it was below 5.00; in the experiment on HL-60 it was above 6.70. Moreover, the pEC50 with RPMI-8226 is 5.30 to 6.00; with KG-1, above 6.70. Further, the inhibition at 198 µM stood at 69% in the experiment on HT29; 47% in the experiment with HepG2; 73% in the experiment on OVCAR 3; 50% in the experiment on MCF-7; 99% in the experiment on CCRF-CEM; 89% in the experiment with MOLT-4. Further, the inhibition at 198 µM is 62% in the experiment on K562; 95% with HL-60; 42% with RL; 86% with RPMI-8226; 92% in the experiment on KG-1.

In the case of `Nc1nc(Cl)nc2c1ncn2[C@@H]1O[C@H](COP(=O)(O)OP(=O)(Oc2ccccc2)N2CCCC2C(=O)OCc2ccccc2)[C@H](O)C1F` (stereo partly drawn) [Example 23, 2-Chloro-9-(2′-Deoxy-2′-fluoro-β-D-arabinofuranosyl)adenine-5′-O-[1-phenyl(benzoxy-L-prolinyl)] Diphosphate Triethylammonium Salt], the pEC50 in the experiment on HT29 is 6.00 to 6.70; in the experiment with HepG2, 5.30 to 6.00; in the experiment with OVCAR 3, below 5.00; in the experiment with CCRF-CEM it was above 6.70; in the experiment on MOLT-4 it was above 6.70; with K562 it was below 5.00. The pEC50 was above 6.70 in the experiment on HL-60, below 5.00 with RPMI-8226 and above 6.70 in the experiment with KG-1. The inhibition at 198 µM with HT29 worked out at 68%; in the experiment with HepG2, 51%; in the experiment on OVCAR 3, 63%; in the experiment with MCF-7, 48%; in the experiment on CCRF-CEM, 99%; with MOLT-4, 89%. The inhibition at 198 µM with K562 came to 35%; in the experiment on HL-60, 96%; in the experiment on RL, 39%; in the experiment with RPMI-8226, 85%; in the experiment on KG-1 it was 93%.

`COC(=O)[C@H](CCSC)NP(=O)(Oc1ccccc1)OP(=O)(O)OC[C@H]1O[C@@H](n2cnc3c(N)nc(Cl)nc32)C(F)[C@H]1O` (stereo partly drawn) [Example 24, 2-Chloro-9-(2′-Deoxy-2′-fluoro-β-D-arabinofuranosyl)adenine-5′-O-[l-phenyl(methoxy-L-metioninyl)] Diphosphate Triethylammonium Salt]: the pEC50 was 6.00 to 6.70 in the experiment with HT29; 5.30 to 6.00 in the experiment with HepG2; below 5.00 in the experiment with OVCAR 3; above 6.70 with CCRF-CEM; above 6.70 in the experiment on MOLT-4; below 5.00 in the experiment on K562. Moreover, the pEC50 was above 6.70 in the experiment with HL-60, below 5.00 in the experiment on RPMI-8226 and above 6.70 with KG-1. In addition, the inhibition at 198 µM in the experiment with HT29 worked out at 70%; with HepG2, 54%; with OVCAR 3, 67%; with MCF-7, 49%; in the experiment on CCRF-CEM it was 99%; in the experiment on MOLT-4, 88%. Also, the inhibition at 198 µM in the experiment on K562 was 49%; in the experiment on HL-60 it was 95%; in the experiment on RL it was 39%; in the experiment with RPMI-8226, 86%; with KG-1 it was 91%.
